Laboratory results published in patent US12679843B2, “Pyrrolopyrimidine amines as complement inhibitors” (BioCryst Pharmaceuticals, Inc., priority 2020, dated 2026).

molecular target: Factor D (Homo sapiens, UniProt P00746); experiment: Factor D esterolytic assay (Z-Lys-SBzl thioester substrate, DTNB, 405 nm); type: biochemical; conditions: substrate Z-Lys-SBzl 1.29 mM, 100 mM HEPES, 500 mM NaCl, pH 7.5, 10% DMSO, tested a minimum of three times
Procedure, shortened: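 Run in pH 7.5 HEPES (100 mM) with 500 mM NaCl and 10% DMSO, with compound preincubated at room temperature or not before adding 1.29 mM Z-Lys-SBzl. Free thiol released by Factor D reacts with DTNB, and rate is followed at 405 nm minus 690 nm over 600 s. IC50 derives from rate-based inhibition, minimum three replicates.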

Chain of Factor D (P00746 26-253): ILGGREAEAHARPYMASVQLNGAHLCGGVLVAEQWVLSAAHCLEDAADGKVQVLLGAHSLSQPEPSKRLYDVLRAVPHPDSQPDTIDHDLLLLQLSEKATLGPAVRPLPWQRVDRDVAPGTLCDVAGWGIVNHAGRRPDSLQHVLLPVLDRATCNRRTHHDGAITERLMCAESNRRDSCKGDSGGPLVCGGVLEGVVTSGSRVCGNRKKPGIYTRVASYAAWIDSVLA

Row | SMILES | IC50
1 | Nc1c(C=O)cnc2c1ccn2CC(=O)N1[C@@H]2C[C@@H]2C[C@H]1C(=O)Nc1cccc(Br)n1 [Compound 156e, (1R,3S,5R)-2-(2-(4-amino-5-formyl-1H-pyrrolo[2,3-b]pyridin-1-yl)acetyl)-N-(6-bromopyridin-2-yl)-2-azabicyclo[3.1.0]hexane-3-carboxamide] | 100 to 1000 nM
2 | Nc1c(CO)cnc2c1ccn2CC(=O)N1[C@@H]2C[C@@H]2C[C@H]1C(=O)Nc1cccc(Br)n1 [Compound 157a, (1R,3S,5R)-2-(2-(4-amino-5-(hydroxymethyl)-1H-pyrrolo[2,3-b]pyridin-1-yl)acetyl)-N-(6-bromopyridin-2-yl)-2-azabicyclo[3.1.0]hexane-3-carboxamide] | 100 to 1000 nM
3 | Cc1cc2c(N)ncnc2n1CC(=O)N1[C@@H]2C[C@@H]2C[C@H]1C(=O)Nc1cccc(Br)n1 [Compound 158e, (1R,3S,5R)-2-(2-(4-amino-6-methyl-7H-pyrrolo[2,3-d]pyrimidin-7-yl)acetyl)-N-(6-bromopyridin-2-yl)-2-azabicyclo[3.1.0]hexane-3-carboxamide] | 100 to 1000 nM
4 | COc1ccc2c(c1)c1c(N)ncnc1n2CC(=O)N1[C@H](C(=O)Nc2cccc(Br)n2)C[C@@]2(C)C[C@@H]12 [Compound 159a, (1R,3S,5R)-2-(2-(4-amino-6-methoxy-9H-pyrimido[4,5-b]indol-9-yl)acetyl)-N-(6-bromopyridin-2-yl)-5-methyl-2-azabicyclo[3.1.0]hexane-3-carboxamide] | < 100 nM
5 | C[C@@]12C[C@@H](C(=O)Nc3cccc(Br)n3)N(C(=O)Cn3c4ccc(Br)cc4c4c(N)ncnc43)[C@@H]1C2 [Compound 160a, (1R,3S,5R)-2-(2-(4-amino-6-bromo-9H-pyrimido[4,5-b]indol-9-yl)acetyl)-N-(6-bromopyridin-2-yl)-5-methyl-2-azabicyclo[3.1.0]hexane-3-carboxamide] | < 100 nM
6 | C[C@@]12C[C@@H](C(=O)Nc3cccc(Br)n3)N(C(=O)Cn3c4ccc(C(=O)O)cc4c4c(N)ncnc43)[C@@H]1C2 [Compound 161a, 4-amino-9-(2-((1R,3S,5R)-3-((6-bromopyridin-2-yl)carbamoyl)-5-methyl-2-azabicyclo[3.1.0]hexan-2-yl)-2-oxoethyl)-9H-pyrimido[4,5-b]indole-6-carboxylic acid] | < 100 nM
7 | Nc1ncnc2c1c1cccnc1n2CC(=O)N1[C@@H]2C[C@@H]2C[C@H]1C(=O)Nc1cccc(Br)n1 [Compound 162g, (1R,3S,5R)-2-(2-(4-amino-9H-pyrido[3′,2′:4,5]pyrrolo[2,3-d]pyrimidin-9-yl)acetyl)-N-(6-bromopyridin-2-yl)-2-azabicyclo[3.1.0]hexane-3-carboxamide] | < 100 nM
8 | Nc1ncnc2c1c1cnccc1n2CC(=O)N1[C@@H]2C[C@@H]2C[C@H]1C(=O)Nc1cccc(Br)n1 [Compound 163g, (1R,3S,5R)-2-(2-(4-amino-9H-pyrido[3′,4′:4,5]pyrrolo[2,3-d]pyrimidin-9-yl)acetyl)-N-(6-bromopyridin-2-yl)-2-azabicyclo[3.1.0]hexane-3-carboxamide] | < 100 nM
9 | C[C@@]12C[C@@H](C(=O)Nc3cccc(Br)n3)N(C(=O)Cn3c4ccc(O)cc4c4c(N)ncnc43)[C@@H]1C2 [Compound 164a, (1R,3S,5R)-2-(2-(4-amino-6-hydroxy-9H-pyrimido[4,5-b]indol-9-yl)acetyl)-N-(6-bromopyridin-2-yl)-5-methyl-2-azabicyclo[3.1.0]hexane-3-carboxamide] | < 100 nM
10 | Nc1ncnc2c1c1cc(CCC(=O)O)ccc1n2CC(=O)N1[C@@H]2C[C@@H]2C[C@H]1C(=O)Nc1cccc(Br)n1 [Compound 165a, 3-(4-amino-9-(2-((1R,3S,5R)-3-((6-bromopyridin-2-yl)carbamoyl)-2-azabicyclo[3.1.0]hexan-2-yl)-2-oxoethyl)-9H-pyrimido[4,5-b]indol-6-yl)propanoic acid] | < 100 nM
11 | Nc1ncnc2c1c1cc(O)ccc1n2CC(=O)N1[C@@H]2C[C@@H]2C[C@H]1C(=O)Nc1cccc(Br)n1 [Compound 166a, (1R,3S,5R)-2-(2-(4-amino-6-hydroxy-9H-pyrimido[4,5-b]indol-9-yl)acetyl)-N-(6-bromopyridin-2-yl)-2-azabicyclo[3.1.0]hexane-3-carboxamide] | < 100 nM

Results, then the molecule that gave them:

Row | IC50 | SMILES
12 | < 100 nM | Nc1ncnc2c1c1ccc(O)cc1n2CC(=O)N1[C@@H]2C[C@@H]2C[C@H]1C(=O)Nc1cccc(Br)n1 [Compound 167a, (1R,3S,5R)-2-(2-(4-amino-7-hydroxy-9H-pyrimido[4,5-b]indol-9-yl)acetyl)-N-(6-bromopyridin-2-yl)-2-azabicyclo[3.1.0]hexane-3-carboxamide]
13 | < 100 nM | CC(=O)Nc1ccc2c(c1)c1c(N)ncnc1n2CC(=O)N1[C@@H]2C[C@@H]2C[C@H]1C(=O)Nc1cccc(Br)n1 [Compound 168g, (1R,3S,5R)-2-(2-(6-acetamido-4-amino-9H-pyrimido[4,5-b]indol-9-yl)acetyl)-N-(6-bromopyridin-2-yl)-2-azabicyclo[3.1.0]hexane-3-carboxamide]
14 | < 100 nM | Nc1ncnc2c1c1cc(C(=O)NCC3CC3)ccc1n2CC(=O)N1[C@@H]2C[C@@H]2C[C@H]1C(=O)Nc1cccc(Br)n1 [Compound 169f, 4-amino-9-(2-((1R,3S,5R)-3-((6-bromopyridin-2-yl)carbamoyl)-2-azabicyclo[3.1.0]hexan-2-yl)-2-oxoethyl)-N-(cyclopropylmethyl)-9H-pyrimido[4,5-b]indole-6-carboxamide]
15 | < 100 nM | CC(O)c1ccc2c(c1)c1c(N)ncnc1n2CC(=O)N1[C@@H]2C[C@@H]2C[C@H]1C(=O)Nc1cccc(Br)n1 (stereo partly drawn) [Compound 170c, (1R,3S,5R)-2-(2-(4-amino-6-(1-hydroxyethyl)-9H-pyrimido[4,5-b]indol-9-yl)acetyl)-N-(6-bromopyridin-2-yl)-2-azabicyclo[3.1.0]hexane-3-carboxamide]
16 | < 100 nM | Nc1ncnc2c1c1cc(C(F)(F)F)ccc1n2CC(=O)N1CCS[C@H]1C(=O)Nc1cccc(Br)n1 [Compound 171b, (S)-3-(2-(4-amino-6-(trifluoromethyl)-9H-pyrimido[4,5-b]indol-9-yl)acetyl)-N-(6-bromopyridin-2-yl)thiazolidine-2-carboxamide]
17 | < 100 nM | COc1cccc2c1c1c(N)ncnc1n2CC(=O)N1[C@H](C(=O)Nc2cccc(Br)n2)C[C@@]2(C)C[C@@H]12 [Compound 172a, (1R,3S,5R)-2-(2-(4-amino-5-methoxy-9H-pyrimido[4,5-b]indol-9-yl)acetyl)-N-(6-bromopyridin-2-yl)-5-methyl-2-azabicyclo[3.1.0]hexane-3-carboxamide]
18 | < 100 nM | COc1cccc2c3c(N)ncnc3n(CC(=O)N3[C@H](C(=O)Nc4cccc(Br)n4)C[C@@]4(C)C[C@@H]34)c12 [Compound 173a, (1R,3S,5R)-2-(2-(4-amino-8-methoxy-9H-pyrimido[4,5-b]indol-9-yl)acetyl)-N-(6-bromopyridin-2-yl)-5-methyl-2-azabicyclo[3.1.0]hexane-3-carboxamide]
19 | > 1000 nM | Nc1ncnc2c1c1cccc(C(F)(F)F)c1n2CC(=O)N1[C@@H]2C[C@@H]2C[C@H]1C(=O)Nc1cccc(Br)n1 [Compound 174g, (1R,3S,5R)-2-(2-(4-amino-8-(trifluoromethyl)-9H-pyrimido[4,5-b]indol-9-yl)acetyl)-N-(6-bromopyridin-2-yl)-2-azabicyclo[3.1.0]hexane-3-carboxamide]
20 | > 1000 nM | C[C@@]12C[C@@H](C(=O)Nc3cccc(Br)n3)N(C(=O)Cn3c4ncnc(N)c4c4cccc(C(F)(F)F)c43)[C@@H]1C2 [Compound 175a, (1R,3S,5R)-2-(2-(4-amino-8-(trifluoromethyl)-9H-pyrimido[4,5-b]indol-9-yl)acetyl)-N-(6-bromopyridin-2-yl)-5-methyl-2-azabicyclo[3.1.0]hexane-3-carboxamide]
21 | 100 to 1000 nM | Cc1cccc2c1c1c(N)ncnc1n2CC(=O)N1[C@H](C(=O)Nc2cccc(Br)n2)C[C@@]2(C)C[C@@H]12 [Compound 176a, (1R,3S,5R)-2-(2-(4-amino-5-methyl-9H-pyrimido[4,5-b]indol-9-yl)acetyl)-N-(6-bromopyridin-2-yl)-5-methyl-2-azabicyclo[3.1.0]hexane-3-carboxamide]
22 | 100 to 1000 nM | N#C[C@H]1C[C@@H](C(=O)Nc2cccc(Br)n2)N(C(=O)Cn2c3ccc(C(F)(F)F)cc3c3c(N)ncnc32)C1 [Compound 177d, (2S,4S)-1-(2-(4-amino-6-(trifluoromethyl)-9H-pyrimido[4,5-b]indol-9-yl)acetyl)-N-(6-bromopyridin-2-yl)-4-cyanopyrrolidine-2-carboxamide]
23 | 100 to 1000 nM | N#C[C@@H]1C[C@@H](C(=O)Nc2cccc(Br)n2)N(C(=O)Cn2c3ccc(C(F)(F)F)cc3c3c(N)ncnc32)C1 [Compound 178d, (2S,4R)-1-(2-(4-amino-6-(trifluoromethyl)-9H-pyrimido[4,5-b]indol-9-yl)acetyl)-N-(6-bromopyridin-2-yl)-4-cyanopyrrolidine-2-carboxamide]
24 | > 1000 nM | Nc1ncnc2c1c1cc(C(F)(F)F)ccc1n2CC(=O)N1c2ccccc2C[C@H]1C(=O)Nc1cccc(Br)n1 [Compound 179d, (S)-1-(2-(4-amino-6-(trifluoromethyl)-9H-pyrimido[4,5-b]indol-9-yl)acetyl)-N-(6-bromopyridin-2-yl)indoline-2-carboxamide]
25 | 100 to 1000 nM | Nc1ncnc2c1c1cc(C(F)(F)F)ccc1n2CC(=O)N1C[C@@H](N)C[C@H]1C(=O)Nc1cccc(Br)n1 [Compound 180e, (2S,4S)-4-amino-1-(2-(4-amino-6-(trifluoromethyl)-9H-pyrimido[4,5-b]indol-9-yl)acetyl)-N-(6-bromopyridin-2-yl)pyrrolidine-2-carboxamide]
26 | < 100 nM | C[C@@]12C[C@@H](C(=O)Nc3cccc(Br)n3)N(C(=O)Cn3c4ccncc4c4c(N)ncnc43)[C@@H]1C2 [Compound 181a, (1R,3S,5R)-2-(2-(4-amino-9H-pyrido[3′,4′:4,5]pyrrolo[2,3-d]pyrimidin-9-yl)acetyl)-N-(6-bromopyridin-2-yl)-5-methyl-2-azabicyclo[3.1.0]hexane-3-carboxamide]
